Tests used:
adenosine deaminase [1] = target: T1, adenosine deaminase (Homo sapiens, UniProt P00813); assay: biochemical
T1 sequence (P00813 1-363): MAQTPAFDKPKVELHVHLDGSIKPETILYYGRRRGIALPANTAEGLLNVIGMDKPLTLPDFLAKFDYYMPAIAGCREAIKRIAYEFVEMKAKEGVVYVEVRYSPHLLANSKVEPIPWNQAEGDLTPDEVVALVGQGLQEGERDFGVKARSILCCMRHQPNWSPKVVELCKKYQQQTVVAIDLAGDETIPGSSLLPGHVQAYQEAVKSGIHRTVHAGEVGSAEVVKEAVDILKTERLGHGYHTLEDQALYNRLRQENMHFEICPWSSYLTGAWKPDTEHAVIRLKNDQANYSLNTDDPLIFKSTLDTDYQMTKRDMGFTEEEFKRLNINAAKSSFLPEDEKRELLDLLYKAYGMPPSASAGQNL
Procedure: The potency of 2'-chloropentostatin as an adenosine deaminase inhibitor was determined using the following methods. The velocity (in moles/minute/ml) of the reaction of adenosine deaminase with adenosine was measured for several concentrations of the enzyme in the presence of various concentrations of the inhibitor, 2'-chloropentostatin. The data has been plotted in FIG. 1 in the form of an Ackerman-Potter plot (see W. W. Ackerman and V. R. Potter, Proc. Soc. Exp. Biol. Med., 72:1 (1949)).
The values of Vo /Vi =2 for each curve yield the I50 for the enzyme inhibitor at each substrate concentration. These I50 values have been plotted versus substrate concentration in FIG. 3.

[2] = tested on: Streptococcus faecalis 05045; assay: Agar disc diffusion, zone of inhibition vs. Streptococcus faecalis 05045; type: cell-based; settings: Enterococcus faecalis, 12.7 mm disc, 37°, overnight, read-out: Zone diameter
Procedure: Paper disks (12.7 mm in diameter) impregnated with an aqueous solution containing varying amounts of 2'-chloropentostatin were placed on a layer of agar containing AM-10 assay medium (Table 4) and inoculated with Streptococcus faecalis 05045. After incubation at 37° overnight the following zones of inhibition were observed: […]

adenosine deaminase [3] = target: T1, adenosine deaminase; settings: prior patents, in words; cited from earlier work
[4] = tested on: DNA viruses, especially herpes and vaccinia viruses; settings: U.S. Pat. No. 3,616,208; mammals; cited from earlier work
adenosine deaminase [5] = target: T1, adenosine deaminase; settings: cited from earlier work

Structure (SMILES): OC[C@H]1O[C@@H](n2cnc3c2N=CNC[C@H]3O)[C@H](Cl)[C@@H]1O [2'-chloropentostatin, (R)-3-(2-chloro-2deoxy-beta-D-ribofuranosyl)-3,6,7,8-tetrahydroimidazo[4,5-d][1,3]diazepin-8-ol]
- Ki (adenosine deaminase [1]): 0.1 nM
- type of inhibition of adenosine deaminase (adenosine deaminase [1]; Ackerman-Potter plot, FIG. 1): "tight-binding" or "pseudo-irreversible" inhibitor
- zone of inhibition at 0.2 µg/mL ([2]; 0.2 μg/ml): 40 mm
- zone of inhibition at 2 µg/mL ([2]; 2 μg/ml): 47 mm
- zone of inhibition at 20 µg/mL ([2]; 20 μg/ml): 55 mm
- zone of inhibition at 200 µg/mL ([2]; 200 μg/ml): 61 mm
- zone of inhibition at 2000 µg/mL ([2]; 2000 μg/ml): 64 mm

Structure (SMILES): OC[C@H]1O[C@@H](n2cnc3c2N=CNC[C@H]3O)[C@H](O)[C@@H]1O [coformycin, (R) -3-(beta-D-ribofuranosyl)-3,6,7,8-tetrahydroimidazo[4,5-d][1,3]diazepin-8-ol]
- inhibition of adenosine deaminase (adenosine deaminase [3]): potent inhibitors of adenosine deaminase

Structure (SMILES): Nc1ncnc2c1ncn2[C@@H]1O[C@H](CO)[C@@H](O)[C@@H]1O [9-(beta-D-arabinofuranosyl)adenine]
- treatment of DNA viruses [4]: useful agent for the treatment of DNA viruses
- biological efficacy, limitation by deamination/deactivation in vivo (adenosine deaminase [5]): greatly diminished by the rapid deamination

From patent US4713372A, “2-chloropentostatin compound having adenosine diaminase inhibitory activity” (Warner-Lambert Company, priority 1985, dated 1987)
